Data reported in ChEMBL document CHEMBL1158707, “Botryane metabolites from the fungus Geniculosporium sp. isolated from the marine red alga Polysiphonia” (2005).

Key:
Type in all cases: functional
[Chlorella] fusca [1] = Antimicrobial activity against Chlorella fusca at 1 mg/ml; conditions: Scenedesmus fuscus; read-out: IZ
[Chlorella] fusca [2] = Antimicrobial activity against Chlorella fusca at 5 mg/ml; conditions: Scenedesmus fuscus; read-out: IZ
Priestia megaterium [3] = assay: Antimicrobial activity against Bacillus megaterium 1mg/ml
Priestia megaterium [4] = assay: Antimicrobial activity against Bacillus megaterium 5 mg/ml
Microbotryum violaceum [5] = assay: Antimicrobial activity against Microbotryum violaceum 1 mg/ml
Microbotryum violaceum [6] = assay: Antimicrobial activity against Microbotryum violaceum 5 mg/ml
[Chlorella] fusca [7] = Antimicrobial activity against Chlorella fusca at 2 mg/ml; conditions: Scenedesmus fuscus; read-out: IZ
[Chlorella] fusca [8] = Antimicrobial activity against Chlorella fusca at 8 mg/ml; conditions: Scenedesmus fuscus; read-out: IZ

Structure (SMILES) | zone of inhibition at 1000 µg/mL ([Chlorella] fusca [1]) [mm] | zone of inhibition at 5000 µg/mL ([Chlorella] fusca [2]) [mm] | inhibition zone (IZ) (Priestia megaterium [3]) [mm] | inhibition zone (IZ) (Priestia megaterium [4]) [mm] | inhibition zone (IZ) (Microbotryum violaceum [5]) [mm] | inhibition zone (IZ) (Microbotryum violaceum [6]) [mm] | zone of inhibition at 2000 µg/mL ([Chlorella] fusca [7]) [mm] | zone of inhibition at 8000 µg/mL ([Chlorella] fusca [8]) [mm]
Cc1ccc2c3c1[C@@H](O)OC[C@@]3(C)[C@H](O)C2(C)C | 0 | 12 | 0 | 6 | 0 | 6 |  | 
Cc1ccc2c3c1COC[C@@]3(C)[C@H](O)C2(C)C |  |  |  |  |  |  | 5 | 5
CO[C@H]1OC[C@@]2(C)[C@H](OC(C)=O)C(C)(C)[C@@H]3[C@@H](OC(C)=O)C[C@@H](C)[C@H]1[C@@]32O | 0 | 0 | 0 | 0 | 0 | 0 |  | 
CO[C@H]1OC[C@]2(C)c3c(ccc(C)c31)C(C)(C)[C@H]2O | 0 | 6 | 0 | 6 | 0 | 8 |  | 
CCO[C@H]1OC[C@]2(C)c3c(ccc(C)c31)C(C)(C)[C@H]2O |  |  |  |  |  |  | 5 | 6
C[C@@H]1CC=C2[C@@H]3[C@H]1CC(O)[C@@]3(C=O)CC2(C)C (some centres not stated) | 0 | 10 | 0 | 0 | 0 | 0 |  | 
C[C@@H]1C[C@H](O)[C@H]2C(C)(C)C[C@]3(C)CO[C@H](O)[C@@H]1[C@@]23O | 0 | 0 | 0 | 0 | 0 | 0 |  | 
Cc1ccc2c3c1C(=O)OC[C@@]3(C)[C@H](O)C2(C)C | 0 | 8 | 0 | 6 | 0 | 0 |  | 
C[C@@H]1CCC2=C3C1=COC[C@@]3(C)[C@H](O)C2(C)C | 0 | 6 | 0 | 0 | 0 | 5 |  | 
C[C@@H]1C[C@H](O)C2=C3C1=COC[C@@]3(C)[C@H](O)C2(C)C | 0 | 7 | 0 | 0 | 0 | 5 |  | 
CO[C@H]1OC[C@@]2(C)[C@H](O)C(C)(C)[C@@H]3[C@@H](O)C[C@@H](C)[C@H]1[C@@]32O | 0 | 0 | 0 | 0 | 0 | 0 |  | 
C[C@@H]1C[C@H](O)[C@@H]2C(=C1C=O)[C@@](C)(CO)[C@H](O)C2(C)C |  |  |  |  |  |  | 0 | 6
C[C@@H]1C[C@H](O)[C@@H]2C3=C1[C@@H](O)OC[C@@]3(C)[C@H](O)C2(C)C |  |  |  |  |  |  | 0 | 7
